From patent publication US20050095663A1, “Process for screening fungitoxic compounds” (priority 2002, published 2005)

Experiments:
S. cerevisiae [1] = assay: Fatty acid composition of S. cerevisiae after treatment (capillary gas chromatography); format: cell-based, Saccharomyces cerevisiae; settings: 18 h
Protocol: (§1) S. cerevisiae was grown in SD medium as 5 ml aliquots of cell suspension in 20 ml capacity glass vials as described in example 3 in the absence (controls) and presence of compound 1. Compound 1 was added as 25 μl of solution in DMSO, and controls received 25 ul DMSO alone. After growth for 18 h at 30° C. with shaking at 225 rpm, inhibition of growth by compound 1 was determined as described in example 3, and the fatty acid composition was determined as follows. The cells were centrifuged in 20 ml borosilicate glass culture tubes at 2000 rpm. The supernatant was decanted, and the cells were re-suspended in 10 ml of water and re-centrifuged at 2000 rpm. The supernatant was decanted, and the cells were saponified by heating at 80° C. for 1 hour in 2.5 ml of 10% potassium hydroxide solution in 90% methanol/10% water. The non-saponifiable lipids were removed by extracting the basic solution with 2×3 ml of cyclohexane. The basic solution was then acidified to pH 2 with 6N hydrochloric acid, and the acidic solution was again extracted with 2×3 ml of cyclohexane. These extracts were analyzed directly by capillary gas chromatography using an HP5890 gas chromatograph equipped with a Restek Stabilwax DB capillary column (30m×0.53 mm i.d.×0.25 μm film thickness) and a flame ionization detector. Analyses were run at 225° C. isothermally, and compared to a sample free fatty acid mixture prepared from authentic standards purchased from Sigma.

S. cerevisiae [2] = assay: Growth inhibition of S. cerevisiae by compound 1; format: cell-based; settings: Saccharomyces cerevisiae, 18 h
Protocol: Fifty ml of YPG culture medium (10 g yeast extract, 20 g peptone, and 20 g glucose per liter of water) in a 250 ml Erlenmeyer flask was inoculated with Saccharomyces cereviae (strain X2180-1A) to give an absorbance at 700 nm of 0.02. This culture was incubated for 18 h at 30° C. with shaking at 225 rpm. The cells were harvested by centrifugation, washed once with SD medium (6.7 g Bacto-yeast nitrogen base and 20 g glucose per liter of water), and suspended in SD medium to give an Absorbance at 700 nm of 0.04. Aliquots (5 ml) of cell suspension were distributed in 20 ml capacity glass vials. Treatments containing compound 1 or cerulenin received 25 μl of a solution of compound in dimethylsulfoxide (DMSO) at 240 ppm or 160 ppm, respectively. Control treatments without compound 1 or cerulenin received 25 ul DMSO. Treatments containing a fatty acid received 25 μl of a 2 mM solution of the fatty acid in a 1% solution of Triton X-100 providing a concentration of 10 μM. Treatments without fatty acid received 25 ul of 1% Triton X-100. All treatments were carried out in duplicate. Vials were incubated for 22 h at 30° C. with shaking at 225 rpm. Growth of the cells was then estimated by diluting the cells in each treatment 3-fold with SD medium and measuring the asorbance at 700 nm. The results in Table 3 show inhibition of growth expressed as a percentage of growth in DMSO controls containing Triton X-100 but lacking Compound 1, cerulenin or fatty acid.
as §1

With `CCC#CCn1nc(-c2ccc(Cl)cc2)ccc1=O` [Compound 1, 6-(4-chlorophenyl)-2-(2′-pentynyl)pyridazinone] the “oleic acid per milligram dry weight of cells” value (S. cerevisiae [1]; 0.0625 μg/ml) was 8.5 µg/mg, the “palmitic acid per milligram dry weight of cells” value (S. cerevisiae [1]; 0.0625 μg/ml) was 7.1 µg/mg and the “palmitoleic acid per milligram dry weight of cells” value (S. cerevisiae [1]; 0.0625 μg/ml) was 14.2 µg/mg. The “stearic acid per milligram dry weight of cells” value (S. cerevisiae [1]; 0.0625 μg/ml) was 2.8 µg/mg, the “oleic acid per milligram dry weight of cells” value (S. cerevisiae [1]; 0.125 μg/ml) was 4.3 µg/mg and the “palmitic acid per milligram dry weight of cells” value (S. cerevisiae [1]; 0.125 μg/ml) was 6.5 µg/mg. For the same compound, the “palmitoleic acid per milligram dry weight of cells” value (S. cerevisiae [1]; 0.125 μg/ml) was 14 µg/mg, the “stearic acid per milligram dry weight of cells” value (S. cerevisiae [1]; 0.125 μg/ml) was 3.1 µg/mg and the “oleic acid per milligram dry weight of cells” value (S. cerevisiae [1]; 0.25 μg/ml) was 2.7 µg/mg. The “palmitic acid per milligram dry weight of cells” value (S. cerevisiae [1]; 0.25 μg/ml) was 6 µg/mg, the “palmitoleic acid per milligram dry weight of cells” value (S. cerevisiae [1]; 0.25 μg/ml) was 3 µg/mg and the “stearic acid per milligram dry weight of cells” value (S. cerevisiae [1]; 0.25 μg/ml) was 3 µg/mg. For the same compound, the “oleic acid per milligram dry weight of cells” value (S. cerevisiae [1]; 0.5 μg/ml) was 1.1 µg/mg, the “palmitic acid per milligram dry weight of cells” value (S. cerevisiae [1]; 0.5 μg/ml) was 5.2 µg/mg and the “palmitoleic acid per milligram dry weight of cells” value (S. cerevisiae [1]; 0.5 μg/ml) was 1 µg/mg. The “stearic acid per milligram dry weight of cells” value (S. cerevisiae [1]; 0.5 μg/ml) was 4.7 µg/mg, the “oleic acid per milligram dry weight of cells” value (S. cerevisiae [1]; 1 μg/ml) was 1.2 µg/mg and the “palmitic acid per milligram dry weight of cells” value (S. cerevisiae [1]; 1 μg/ml) was 6.7 µg/mg. The “palmitoleic acid per milligram dry weight of cells” value (S. cerevisiae [1]; 1 μg/ml) was 0 µg/mg, the “stearic acid per milligram dry weight of cells” value (S. cerevisiae [1]; 1 μg/ml) was 5 µg/mg and the “oleic acid per milligram dry weight of cells” value (S. cerevisiae [1]; 2 μg/ml) was 0.5 µg/mg. For the same compound, the “palmitic acid per milligram dry weight of cells” value (S. cerevisiae [1]; 2 μg/ml) was 5 µg/mg, the “palmitoleic acid per milligram dry weight of cells” value (S. cerevisiae [1]; 2 μg/ml) was 0 µg/mg and the “stearic acid per milligram dry weight of cells” value (S. cerevisiae [1]; 2 μg/ml) was 4.2 µg/mg. For the same compound, the inhibition at 0.0625 µg/mL (S. cerevisiae [2]; 0.0625 μg/ml) was 10.1%, the inhibition at 0.125 µg/mL (S. cerevisiae [2]; 0.125 μg/ml) was 14.3% and the inhibition at 0.25 µg/mL (S. cerevisiae [2]; 0.25 μg/ml) was 19.1%. The inhibition at 0.5 µg/mL (S. cerevisiae [2]; 0.5 μg/ml) was 38.7%, the inhibition at 1 µg/mL (S. cerevisiae [2]; 1 μg/ml) was 54.4% and the inhibition at 2 µg/mL (S. cerevisiae [2]; 2 μg/ml) was 66.4%.
